Measured values from article PMC5346982, “Antimalarial Properties of Simplified Kalihinol Analogues” (ACS Medicinal Chemistry Letters, 2017).
pIC50: −log10 of the molar value. Values joined by “and” are separate entries in the source; they are usually repeats but may differ in a detail not shown here. Equal values may be shown once. Read-outs that look alike come from different tables or passages of the source.

Key:
[1] = test system: P. falciparum 3D7; test: SYBR Green based parasite proliferation assay, drug-sensitive 3D7 strain; assay type: cell-based, Plasmodium falciparum
[2] = test system: P. falciparum Dd2; test: SYBR Green based parasite proliferation assay, chloroquine-resistant Dd2 strain; assay type: cell-based, Plasmodium falciparum
[3] = test system: P. falciparum HB3; conditions: Wood group, cited from earlier work
[4] = test system: P. falciparum Dd2; conditions: Wood group, cited from earlier work
[5] = test system: P. falciparum W2; conditions: drug-resistant W2 strain; Figure 1; cited from earlier work
[6] = Microsomal stability assay, human liver microsomes; assay type: in vitro ADME; conditions: pH 7.4
Description: Reference compound Ketanserin
Sample size Duplicates (n=2)
Bioanalytical method LC-MS/MS
Microsomal Liver Weight per Hepatic
Species Protein Kilogram of Body Scaling Factora Blood Flow
per Gram of Liver Weight (mL/min/kg)
Test Article Species Percent Remaining (%) T1/2 Clint
1. Historic data of ketanserin:
Detection method UPLC-MS/MS-29(API6500+)
Internal standard (s) Osalmid, imipramine
MS conditions Positive ion, ESI
Mobile phase A: 0.025%FA/1mM NH4OAc/H2O
2. Reference compouds(Ketanserin) and test compounds spiking solution: […]

[7] = in vitro; conditions: mouse, microsomes, pH 7.4
[8] = microsomes; cited from earlier work
[9] = microsomes; cited from earlier work; remark: listed apart in the source
[10] = test system: FCR-3 Plasmodium falciparum; design: method as in doi:10.1016/S0040-4020(98)00818-7; conditions: chloroquine-resistant FCR-3 strain; cited from earlier work
[11] = drug-sensitive 3D7 strain, 72 h incubation, n = 3, read-out: IC50
[12] = drug-resistant Dd2 strain, 72 h incubation, n = 3, read-out: IC50

Which “IC50” value ([1]; 3D7 strain) does the source give for kalihinol B [compound 2] here?
The value was 0.0033 µg/mL.

What about the pIC50 [1, 11] of the same compound?
Its pIC50 is 8.08.

And the “IC50” value ([2]; Dd2 strain)?
The value was 0.0018 µg/mL.

What about the pIC50 [2, 12] of the same compound?
The pIC50 was 8.34.

With `[C-]#[N+]C1C2C(C(C)C)CCC(C)([N+]#[C-])C2CCC1(C)O` (racemic) [(±)-22] as the compound, how does the pIC50 ([3]; HB3) read?
The pIC50 was 7.10.

And the pIC50 ([4]; Dd2)?
Its pIC50 is 7.10.

For 10-isocyano-4-cadinene [(±)-15], which “IC50” value ([1]; 3D7 strain) is on record?
The value was 0.1631 µg/mL.

What about the pIC50 [1, 11] of the same compound?
Its pIC50 is 6.15.

What about the “IC50” value ([2]; Dd2 strain) of the same compound?
The value was 0.057 µg/mL.

What about the pIC50 [2, 12] of the same compound?
The pIC50 was 6.61.

And the pIC50 ([3]; HB3 (chloroquine-sensitive))?
Its pIC50 is 5.66.

And the pIC50 ([4]; Dd2 (chloroquine-resistant))?
Its pIC50 is 5.66.

What does the source list for `CCN(CC)CCCC(C)Nc1ccnc2cc(Cl)ccc12` (stereo not shown) [Chloroquine]?
IC50 ([1]; Plasmodium falciparum, 3D7, read-out: Chloroquine IC50 [µM], 3D7 strain, antimalarial standard run alongside each compound): 0.0063 µM; pIC50 ([1]; read-out: Chloroquine IC50, 3D7 strain, antimalarial standard run alongside each compound): 8.28 and 8.18 and 8.23 and 8.04 and 8.05 and 8.24 and 8.21; IC50 ([2]; Plasmodium falciparum, DD2, read-out: Chloroquine IC50 [µM], Dd2 strain, antimalarial standard run alongside each compound): 0.0275 µM; pIC50 ([2]; read-out: Chloroquine IC50, Dd2 strain, antimalarial standard run alongside each compound): 7.49 and 7.47 and 7.30 and 7.28

With 7,20-diisocyanoadociane [compound 4] as the compound, how does the pIC50 [5] read?
The pIC50 was 7.89.

What does the source list for `O=C(c1ccc(F)cc1)C1CCN(CCn2c(=O)[nH]c3ccccc3c2=O)CC1` [ketanserin]?
CLint scaled at 1 µM ([6]; human, microsomes): 40 mL/min/kg; remaining at 5 min, 1 µM ([6]; human, microsomes): 88.4%; remaining at 0.25 h, 1 µM ([6]; human, microsomes): 77%; remaining at 0.5 h, 1 µM ([6]; human, microsomes): 62.5%; remaining at 0.75 h, 1 µM ([6]; human, microsomes): 47.3%; half-life at 1 µM ([6]; human liver microsomes 0.5 mg/mL, 1 µM, 37°C): 43.4 min; CLint scaled at 1 µM [7]: 267 mL/min/kg; half-life at 1 µM [7]: 20.4 min; remaining at 0 h, 1 µM [7]: 100%; remaining at 5 min, 1 µM [7]: 79.9%; remaining at 0.25 h, 1 µM [7]: 55.5%; remaining at 0.5 h, 1 µM [7]: 32.9%; remaining at 0.75 h, 1 µM [7]: 21.7%; T1/2 (Human), historic data [8]: 39.69 ± 6.36 min; T1/2 (Mouse), historic data [9]: 18.27 ± 3.89 min

With 6-hydroxy-kalihinene [compound 3] as the compound, how does the pIC50 [10] read?
The pIC50 was 7.10.

With kalihinol A [compound 1] as the compound, how does the pIC50 [10] read?
Its pIC50 is 8.92.
